We go through eight compounds from patent US20260364184A1, “COMPOUND BASED ON OXOISOINDOLINYL-SUBSTITUTED TETRAHYDROPYRIMIDINE-DIONE AND USE THEREOF” (GLUETACS THERAPEUTICS (SHANGHAI) CO., LTD., priority 2023, published 2026).

The subject of experiment [1] is Human non-small cell lung cancer cell line NCI-H1975. In words: Inhibition of H1975 cell proliferation (CellTiter luminescent viability). Type of experiment: cell-based. Particulars: Table ID1, EGFR inhibitor-based; H1975, 96 hours; read-out: Inhibitory activity (IC50, nM) on tumor cell proliferation, H1975. How it is done:
The tumor cells used herein were cultured in a cell culture medium listed in table 3 at 37 °C in an incubator with 5% CO2. Prior to experimentation, all cell lines used were correctly identified by STR profiling, and tested negative for mycoplasma contamination using a mycoplasma detection kit through routine screenings.
The IC50 values of the compounds of the present disclosure (including the compounds in Table 1, Table 2, and Examples 1-468) were determined using the CellTiter-Meiluncell Luminescent Cell Viability Assay Kit from Dalian Meilun Biotech Co., Ltd. The detailed procedure is as follows: Tumor cells were seeded in 96-well cell culture plates at the densities specified in Table 4. On the following day, the test compounds of the present disclosure were subjected to serial dilution. The dilution can be performed according to one of the following two methods: • (1) The first dilution method: The test compounds of the present disclosure (including the compounds in Table 1, Table 2, and Examples 1-468) were subjected to 5-fold serial dilutions starting from a highest concentration of 2000 μM, resulting in a total of 9 concentrations from high to low (2000, 400, 80, 16, 3.2, 0.64, 0.128, 0.0256, 0.00512 μM). Subsequently, 0.5 μL of the test compound dilution was transferred into the 96-well plate containing the cells, with each well containing 100 μL of cell culture medium. […] Into the 96-well plate, the diluted test compounds and corresponding detection reagents were added, resulting in final test compound concentrations of 500 nM and 10 nM, respectively. The experimental procedure is described below using the diluted 2 μM test compound as an example.
0.5 μL of the aforementioned diluted compound of the present disclosure (including the compounds in Table 1, Table 2, and Examples 1-468) was added to the seeded cells in 100 μL of medium, yielding a final test compound concentration of 10 nM. After the cells were treated with the compounds of the present disclosure for a specified period, the cell viability assay reagent was added to the culture medium according to the kit's instructions to determine cell viability. […] All controls were treated using the same procedure as the compounds of the present disclosure. The growth inhibition curves for the compounds of the present disclosure were plotted using Prism GraphPad software, and the IC50 values were calculated therefrom.

A further experiment addresses T1, EGFR (Homo sapiens, UniProt P00533).
T1 construct: L858R/T790M in cis, heterozygous with wild type), Western blot
In words: Western blot degradation of EGFR. Type of experiment: cell-based. Particulars: H1975 Cell; 24 hours. How it is done: Conventional Western blot assay was performed to evaluate the effects of the compounds of the present disclosure on the expression of target proteins in cells.
(1) Cell Seeding and Protein Harvesting: The selected cells were processed according to the cell seeding procedure and protein harvesting procedure in Table II-2.
(2) To the collected supernatant, 5×SDS sample loading buffer was added, followed by denaturation at 95 °C for 5 minutes. The denatured samples were then separated by SDS-PAGE electrophoresis on a polyacrylamide gel. Proteins were transferred to a nitrocellulose membrane (0.45 μm NC membrane), blocked with blocking buffer at room temperature for 1 hour, and subjected to antibody incubation and development procedures according to the antibody manufacturer's instructions (Cell Signaling Technology).
Half-Maximal Degradation Concentration value (the drug concentration required for degrading proteins by 50%, abbreviated as DC50) reads method: comparing the grayscale values of Western blot bands from drug-treated samples with those from blank DMSO-treated controls, and identifying the drug concentration range at which the grayscale value is half that of the DMSO-treated control bands.
DC50 values can be calculated using ImageJ software to measure grayscale values of Western blot bands from drug-treated samples. The concentration-response curve is fitted to estimate the drug concentration corresponding to half the grayscale value.
Target protein remaining (%) refers to the percentage of target protein remaining in cells after treatment with protein degrader compounds.
Calculation method for target protein remaining (%): Use ImageJ software to measure grayscale values of Western blot bands from drug (protein degrader)-treated samples. The grayscale value of drug-treated bands is divided by that of internal control protein bands, and the resulting quotient is normalized to obtain the relative percentage of remaining target protein after protein degrader treatment.
Target protein degradation rate (%)=1−target protein remaining (%).
On the technique in general: Immunoblotting shows a protein as a band on a membrane.

Experiment [2] concerns the target T2, human Cereblon WT GST-tagged protein (CRBN) (Homo sapiens, UniProt Q96SW2).
T2 construct: purchased CISBIO 64BDCRBNPEH
In words: CRBN binding by HTRF (Cereblon binding kit). The essentials:
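GST-tagged human Cereblon WT was incubated 3 h at room temperature with compound, thalidomide-Re tracer and Eu anti-GST antibody. Final compound concentrations were 10 to 0.00064 µM (7 points) or 2 and 0.5 µM. Inhibition rate was calculated from HTRF 665/620 nm ratios versus solvent and blank controls.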
In general terms: Time-resolved FRET reads energy transfer from a long-lived donor to a nearby acceptor.

T2 sequence (Q96SW2 whole entry): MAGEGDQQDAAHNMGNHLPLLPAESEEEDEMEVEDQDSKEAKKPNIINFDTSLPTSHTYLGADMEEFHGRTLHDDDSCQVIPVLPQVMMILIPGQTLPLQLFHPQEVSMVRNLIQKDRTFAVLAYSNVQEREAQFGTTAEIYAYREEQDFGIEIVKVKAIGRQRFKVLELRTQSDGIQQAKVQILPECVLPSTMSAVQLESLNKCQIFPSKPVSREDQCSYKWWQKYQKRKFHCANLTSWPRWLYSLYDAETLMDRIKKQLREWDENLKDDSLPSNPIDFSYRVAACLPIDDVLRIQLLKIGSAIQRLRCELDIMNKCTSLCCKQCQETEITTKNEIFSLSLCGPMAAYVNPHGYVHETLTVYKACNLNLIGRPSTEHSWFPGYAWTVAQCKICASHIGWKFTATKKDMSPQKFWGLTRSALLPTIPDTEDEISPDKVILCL
T1 sequence (P00533 25-1210): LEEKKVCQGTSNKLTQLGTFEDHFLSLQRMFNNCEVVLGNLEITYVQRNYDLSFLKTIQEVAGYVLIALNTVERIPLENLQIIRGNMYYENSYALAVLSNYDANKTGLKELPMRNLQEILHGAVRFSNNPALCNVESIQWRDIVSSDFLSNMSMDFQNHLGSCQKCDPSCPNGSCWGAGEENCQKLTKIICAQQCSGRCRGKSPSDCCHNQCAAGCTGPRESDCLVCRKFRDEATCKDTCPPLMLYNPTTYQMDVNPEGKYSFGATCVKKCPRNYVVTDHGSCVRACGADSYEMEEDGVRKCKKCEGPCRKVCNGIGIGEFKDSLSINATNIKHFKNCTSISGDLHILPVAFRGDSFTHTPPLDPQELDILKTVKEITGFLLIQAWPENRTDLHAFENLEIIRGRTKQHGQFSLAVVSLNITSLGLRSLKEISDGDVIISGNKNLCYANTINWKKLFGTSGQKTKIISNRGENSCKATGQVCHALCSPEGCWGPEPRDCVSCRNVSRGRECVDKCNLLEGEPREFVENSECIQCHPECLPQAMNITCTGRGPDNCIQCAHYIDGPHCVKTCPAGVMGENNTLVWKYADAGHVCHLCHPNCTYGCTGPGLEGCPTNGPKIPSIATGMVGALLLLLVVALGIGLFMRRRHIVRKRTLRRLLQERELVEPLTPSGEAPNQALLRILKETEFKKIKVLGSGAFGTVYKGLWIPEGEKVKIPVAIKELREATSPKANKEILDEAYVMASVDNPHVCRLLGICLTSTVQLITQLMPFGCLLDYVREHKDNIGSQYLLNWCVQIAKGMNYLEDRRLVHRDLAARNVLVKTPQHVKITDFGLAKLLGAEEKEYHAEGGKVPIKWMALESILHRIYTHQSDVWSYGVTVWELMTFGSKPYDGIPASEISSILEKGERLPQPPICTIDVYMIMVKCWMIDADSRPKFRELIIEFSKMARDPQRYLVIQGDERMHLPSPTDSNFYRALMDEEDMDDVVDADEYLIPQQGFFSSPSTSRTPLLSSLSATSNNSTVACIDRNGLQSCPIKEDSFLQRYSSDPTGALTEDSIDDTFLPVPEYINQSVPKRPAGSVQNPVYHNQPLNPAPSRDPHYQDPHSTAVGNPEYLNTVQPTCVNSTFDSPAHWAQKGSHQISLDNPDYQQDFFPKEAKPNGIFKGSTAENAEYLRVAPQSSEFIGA
T1 sequence (Q96SW2 whole entry partner): as the sequence (Q96SW2 whole entry) above

For `O=C1CCN(N2Cc3cc(CN4C[C@@H]5C[C@H]4CN5c4ccc(-c5cc(F)c6c(c5)C(=O)N(C(C(=O)Nc5nccs5)c5ncn7c5CCC7)C6)cc4)ccc3C2=O)C(=O)N1` (stereo partly drawn) [GT-05114, 2-(6,7-dihydro-5H-pyrrolo[1,2-c]imidazol-1-yl)-2-(6-(4-((1S,4S)-5-((2-(2,4-dioxotetrahydropyrimidin-1(2H)-yl)-1-oxoisoindolin-5-yl)methyl)-2,5-diazabicyclo[2.2.1]heptan-2-yl)phenyl)-4-fluoro-1-oxoisoindolin-2-yl)-N-(thiazol-2-yl)acetamide], the IC50 in experiment [1] is 100 to 130 nM. Further, the “Degradation of substrate protein EGFR (substrate protein remaining %)” value (shortened to “Degradation … (substrate protein remaining %)”) at EGFR was “A (0%≤substrate protein remaining %≤80%)”. Also, in experiment [2], the “Inhibition Rate at 0.5 μM (%)” value is recorded as “a2 (20% < a2 ≤ 30%)” and the “Inhibition Rate at 2 μM (%)” value is listed as “a5 (53% < a5 ≤ 60%)”.

With `O=C1CCN(N2Cc3cc(CN4CCN(c5ccc(-c6cc(F)c7c(c6)C(=O)N(C(C(=O)Nc6nccs6)c6ncn8c6CCC8)C7)cc5)CC4)ccc3C2=O)C(=O)N1` (stereo not drawn) [GT-06159, 2-(6,7-dihydro-5H-pyrrolo[1,2-c]imidazol-1-yl)-2-(6-(4-(4-((2-(2,4-dioxotetrahydropyrimidin-1(2H)-yl)-1-oxoisoindolin-5-yl)methyl)piperazin-1-yl)phenyl)-4-fluoro-1-oxoisoindolin-2-yl)-N-(thiazol-2-yl)acetamide], the IC50 in experiment [1] was less than 10 nM. For the same compound, the “Degradation … (substrate protein remaining %)” value at EGFR is recorded as “A (0%≤substrate protein remaining %≤80%)”.

For the compound `O=C1CCN(N2C(=O)c3ccc(N4CCC(CN5CCN(c6ccc(-c7cc(F)c8c(c7)C(=O)N(C(C(=O)Nc7nccs7)c7ncn9c7CCC9)C8)cc6)CC5)CC4)cc3C2=O)C(=O)N1` (stereo not drawn) [GT-06161, 2-(6,7-dihydro-5H-pyrrolo[1,2-c]imidazol-1-yl)-2-(6-(4-(4-((1-(2-(2,4-dioxotetrahydropyrimidin-1(2H)-yl)-1,3-dioxoisoindolin-5-yl)piperidin-4-yl)methyl)piperazin-1-yl)phenyl)-4-fluoro-1-oxoisoindolin-2-yl)-N-(thiazol-2-yl)acetamide], in experiment [1], the IC50 lay in the range of 10 to 50 nM. Further, at EGFR, the “Degradation … (substrate protein remaining %)” value is reported as “A (0%≤substrate protein remaining %≤80%)”.

For the compound `O=C1CCN(N2C(=O)c3ccc(N4CCC(CN5C[C@H]6C[C@@H]5CN6c5ccc(-c6cc(F)c7c(c6)C(=O)N(C(C(=O)Nc6nccs6)c6ncn8c6CCC8)C7)cc5)CC4)cc3C2=O)C(=O)N1` (stereo partly drawn) [GT-06174, 2-(6,7-dihydro-5H-pyrrolo[1,2-c]imidazol-1-yl)-2-(6-(4-((1R,4R)-5-((1-(2-(2,4-dioxotetrahydropyrimidin-1(2H)-yl)-1,3-dioxoisoindolin-5-yl)piperidin-4-yl)methyl)-2,5-diazabicyclo[2.2.1]heptan-2-yl)phenyl)-4-fluoro-1-oxoisoindolin-2-yl)-N-(thiazol-2-yl)acetamide], in experiment [1], the IC50 fell in the range of 10 to 50 nM. Besides, the “Degradation … (substrate protein remaining %)” value on EGFR is listed as “A (0%≤substrate protein remaining %≤80%)”.

In the case of `O=C1CCN(N2C(=O)c3cccc(N4CCC(CN5C[C@H]6C[C@@H]5CN6c5ccc(-c6cc(F)c7c(c6)C(=O)N(C(C(=O)Nc6nccs6)c6ncn8c6CCC8)C7)cc5)CC4)c3C2=O)C(=O)N1` (stereo partly drawn) [GT-06175, 2-(6,7-dihydro-5H-pyrrolo[1,2-c]imidazol-1-yl)-2-(6-(4-((1R,4R)-5-((1-(2-(2,4-dioxotetrahydropyrimidin-1(2H)-yl)-1,3-dioxoisoindolin-4-yl)piperidin-4-yl)methyl)-2,5-diazabicyclo[2.2.1]heptan-2-yl)phenyl)-4-fluoro-1-oxoisoindolin-2-yl)-N-(thiazol-2-yl)acetamide], the IC50 in experiment [1] was in the range of 10 to 50 nM. In addition, the “Degradation … (substrate protein remaining %)” value at EGFR is “A (0%≤substrate protein remaining %≤80%)”.

Regarding `O=C1CCN(N2Cc3cc(CN4CCN(C5CCN(c6ccc(-c7cc(F)c8c(c7)C(=O)N(C(C(=O)Nc7nccs7)c7ncn9c7CCC9)C8)cc6)CC5)CC4)ccc3C2=O)C(=O)N1` (stereo not drawn) [GT-06241, 2-(6,7-dihydro-5H-pyrrolo[1,2-c]imidazol-1-yl)-2-(6-(4-(4-(4-((2-(2,4-dioxotetrahydropyrimidin-1(2H)-yl)-1-oxoisoindolin-5-yl)methyl)piperazin-1-yl)piperidin-1-yl)phenyl)-4-fluoro-1-oxoisoindolin-2-yl)-N-(thiazol-2-yl)acetamide], the IC50 in experiment [1] is 10 to 50 nM. Further, the “Degradation … (substrate protein remaining %)” value at EGFR is “A (0%≤substrate protein remaining %≤80%)”. In experiment [2], the “Inhibition Rate at 0.5 μM (%)” value is on record as “a1 (10% < a1 ≤ 20%)” and the “Inhibition Rate at 2 μM (%)” value is “a5 (53% < a5 ≤ 60%)”.

For the compound `O=C1CCN(N2Cc3cc(CN4CCN(C5CCN(c6ccc(-c7cc(F)c8c(c7)C(=O)N(C(C(=O)Nc7nccs7)c7ncn9c7CCC9)C8)cc6)CC5(F)F)CC4)ccc3C2=O)C(=O)N1` (stereo not drawn) [GT-06315, 2-(6,7-dihydro-5H-pyrrolo[1,2-c]imidazol-1-yl)-2-(6-(4-(4-(4-((2-(2,4-dioxotetrahydropyrimidin-1(2H)-yl)-1-oxoisoindolin-5-yl)methyl)piperazin-1-yl)-3,3-difluoropiperidin-1-yl)phenyl)-4-fluoro-1-oxoisoindolin-2-yl)-N-(thiazol-2-yl)acetamide], in experiment [1], the IC50 was less than 10 nM. Also, the “Degradation … (substrate protein remaining %)” value at EGFR is “A (0%≤substrate protein remaining %≤80%)”.

`O=C1CCN(N2Cc3cc(CN4CCC(N5CCN(c6ccc(-c7cc(F)c8c(c7)C(=O)N(C(C(=O)Nc7nccs7)c7ncn9c7CCC9)C8)cc6)CC5)CC4)ccc3C2=O)C(=O)N1` (stereo not drawn) [GT-06324, 2-(6,7-dihydro-5H-pyrrolo[1,2-c]imidazol-1-yl)-2-(6-(4-(4-(1-((2-(2,4-dioxotetrahydropyrimidin-1(2H)-yl)-1-oxoisoindolin-5-yl)methyl)piperidin-4-yl)piperazin-1-yl)phenyl)-4-fluoro-1-oxoisoindolin-2-yl)-N-(thiazol-2-yl)acetamide]: the IC50 in experiment [1] was 10 to 50 nM. In addition, in experiment [2], the “Inhibition Rate at 0.5 μM (%)” value was “a1 (10% < a1 ≤ 20%)” and the “Inhibition Rate at 2 μM (%)” value is recorded as “a5 (53% < a5 ≤ 60%)”.
